In patent US20250025427A1, “MIXED AMIDE ESTER CONTAINING LIPIDS FOR USE IN LIPID NANOPARTICLES” (Acuitas Therapeutics, Inc., priority 2023, published 2025):

System: human IgG in mouse serum
Assay: Immunoglobulin G (IgG) mRNA in vivo evaluation using lipid nanoparticle compositions
Set-up: species or system mice
Details: LNP with the cationic lipid, tail vein injection, μg IgG/mL serum 24 hours after administration; for Serum IgG (μg/mL) @ 0.3 mg/kg: 0.3 mg mRNA/kg; for Serum IgG (μg/mL) @ 1.0 mg/kg: 1.0 mg mRNA/kg
Method: A lipid of Formula (I), DSPC, cholesterol and PEG-lipid of Formula (II) are solubilized in ethanol at a molar ratio of 50:10:38.5:1.5 or 47.5:10:40.7:1.8. Lipid nanoparticles (LNP) are prepared at a total lipid to mRNA weight ratio of approximately 10:1 to 40:1. Briefly, the mRNA is diluted to 0.2 mg/mL in 10 to 50 mM citrate buffer, pH 4 to 6 or 10 to 25 mM acetate buffer, pH 4 to 6. Syringe pumps are used to mix the ethanolic lipid solution with the mRNA aqueous solution at a ratio of about 1:5 to 1:3 (vol/vol) with total flow rates above 15 mL/min. The ethanol is then removed, and the external buffer replaced with PBS by dialysis. Finally, the lipid nanoparticles are filtered through a 0.2 µm pore sterile filter.
Studies are performed in 6-8-week-old CD-1/ICR mice (Charles River or Inotiv) according to guidelines established by an institutional animal care committee (ACC) and the Canadian Council on Animal Care (CCAC). Varying doses of mRNA-lipid nanoparticle are systemically administered by tail vein injection and animals euthanized at a specific time point (e.g., 24 hours) post-administration. The whole blood is collected, and the serum subsequentially separated by centrifuging the tubes of the whole blood at 2000×g for 10 minutes at 4° C. and stored at −80° C. until use for analysis.
For immunoglobulin G (IgG) ELISA (Life Diagnostics Human IgG ELISA kit), the serum samples are diluted at 100 to 20,000 folds with 1× diluent solution. 100 μL of diluted serum is dispensed into anti-human IgG coated 96-well plate in duplicate alongside human IgG standards and incubated in a plate shaker at 150 rpm at 25° C. for 45 minutes. The wells are washed 5 times with 1× wash solution using a plate washer (400 μL/well). 100 μL of HRP conjugate is added into each well and incubated in a plate shaker at the same condition above. The wells are washed 5 times again with 1× wash solution using a plate washer (400 μL/well). 100 μL of TMB reagent is added into each well and incubated in a plate shaker at the same condition above. The reaction is stopped by adding 100 μL of Stop solution to each well. The absorbance is read at 450 nm (A450) with a microplate reader. The amount of human IgG in mouse serum is determined by plotting A450 values for the assay standard against human IgG concentration.
Representative compounds of the disclosure shown in Table 2 were formulated using the following molar ratio: 50% cationic lipid/10% distearoylphosphatidylcholine (DSPC)/38.5% Cholesterol/1.5% PEG lipid 2-[2-(ω-methoxy(polyethyleneglycohooo)ethoxy]-N,N-ditetradecylacetamide) or 47.5% cationic lipid/10% DSPC/40.7% Cholesterol/1.8% PEG lipid. Relative activity was determined by measuring the amount of human IgG […]. The activity was compared at a dose of 1.0 or 0.3 mg mRNA/kg and expressed as ng luciferase/g liver measured 4 hours after administration, as described in Example 1 or as μg IgG/mL serum measured 24 hours after administration, as described in Example 2. Compound numbers in Table 2 refer to the compound numbers of Table 1.

| Compound | Serum IgG (μg/mL) @ 0.3 mg/kg [µg/mL] | Serum IgG (μg/mL) @ 1.0 mg/kg [µg/mL] |
| --- | --- | --- |
| CCCCCCCCC(CCCCCC)COC(=O)CCCCCCCNC(=O)CCCCCCCCCN(C)CCCCCCCCCC(=O)NCCCCCCCC(=O)OCC(CCCCCC)CCCCCCCC (stereo not drawn) [Compound I-2, Bis(2-Hexyldecyl) 8,8′-((10,10′-(Methylazanediyl)Bis(Decanoyl))Bis(Azanediyl))Dioctanoate] | 70.7 ± 11.3 | 369.6 ± 59.4 |
| CCCCCCCCC(CCCCCC)COC(=O)CCCCCCCC(=O)N(CCCCCC)CCCCCCN(C)CCCCCCN(CCCCCC)C(=O)CCCCCCCC(=O)OCC(CCCCCC)CCCCCCCC (stereo not drawn) [Compound I-5, Bis(2-Hexyldecyl) 9,9′-(((Methylazanediyl)Bis(Hexane-6,1-Diyl))Bis(Hexylazanediyl))Bis(9-Oxononanoate)] | 57.5 ± 8.4 |  |
| CCCCCCCCC(CCCCCC)COC(=O)CCCCCNC(=O)CCCCCCCN(C)CCCCCCCC(=O)N(CCCCCC)CCCCCC(=O)OCC(CCCCCC)CCCCCCCC (stereo not drawn) [Compound I-11, 2-Hexyldecyl 6-(8-((8-(Hexyl(6-((2-Hexyldecyl)Oxy)-6-Oxohexyl)Amino)-8-Oxooctyl)(Methyl)Amino)Octanamido)Hexanoate] | 35.6 ± 5.5 |  |
| CCCCCCCCC(CCCCCC)COC(=O)CCCCCN(CCCCCC)C(=O)CCCCCCCN(CCCCCCCC(=O)N(CCCCCC)CCCCCC(=O)OCC(CCCCCC)CCCCCCCC)[C@H]1CC[C@@H](O)CC1 (stereo partly drawn) [Compound I-12, Rel-Bis(2-Hexyldecyl) 6,6′-((8,8′-(((1R,4R)-4-Hydroxycyclohexyl)Azanediyl)Bis(Octanoyl))Bis(Hexylazanediyl))Dihexanoate] | 29.6 ± 12.7 |  |
| CCCCCCCCC(CCCCCC)C(=O)OCCCCCCCCC(=O)N(CCCCCC)CCCCCCN(C)CCCCCCN(CCCCCC)C(=O)CCCCCCCCOC(=O)C(CCCCCC)CCCCCCCC (stereo not drawn) [Compound I-13, (((methylazanediyl)bis(hexane-6,1-diyl))bis(hexylazanediyl))bis(9-oxononane-9,1-diyl) bis(2-hexyldecanoate)] | 11.3 ± 4.7 |  |
| CCCCCCCCC(CCCCCC)COC(=O)CCCCCCN(CCCCCC)C(=O)CCCCCCCN(C)CCCCCCCC(=O)N(CCCCCC)CCCCCCC(=O)OCC(CCCCCC)CCCCCCCC (stereo not drawn) [Compound I-14, Bis(2-Hexyldecyl) 7,7′-((8,8′-(Methylazanediyl)Bis(Octanoyl))Bis(Hexylazanediyl))Diheptanoate] | 33.4 ± 7.7 |  |
| CCCCCCCCC(CCCCCC)COC(=O)CCCCN(CCCCCC)C(=O)CCCCCCCN(C)CCCCCCCC(=O)N(CCCCCC)CCCCC(=O)OCC(CCCCCC)CCCCCCCC (stereo not drawn) [Compound I-15, Bis(2-Hexyldecyl) 5,5′-((8,8′-(Methylazanediyl)Bis(Octanoyl))Bis(Hexylazanediyl))Dipentanoate] | 48.2 ± 12.7 | 135.0 ± 37.2 |
| CCCCCCCCC(CCCCCC)COC(=O)CCCCCCCN(CCCCCC)C(=O)CCCCCCN(C)CCCCCCC(=O)N(CCCCCC)CCCCCCCC(=O)OCC(CCCCCC)CCCCCCCC (stereo not drawn) [Compound I-16, Bis(2-Hexyldecyl) 8,8′-((7,7′-(Methylazanediyl)Bis(Heptanoyl))Bis(Hexylazanediyl))Dioctanoate] | 37.2 ± 9.7 |  |
| CCCCCCCCC(CCCCCC)COC(=O)CCCCCCCCN(CCCCCC)C(=O)CCCCCN(C)CCCCCC(=O)N(CCCCCC)CCCCCCCCC(=O)OCC(CCCCCC)CCCCCCCC (stereo not drawn) [Compound I-17, Bis(2-Hexyldecyl) 9,9′-((6,6′-(Methylazanediyl)Bis(Hexanoyl))Bis(Hexylazanediyl))Dinonanoate] | 16.0 ± 2.6 |  |
| CCCCCCCCC(CCCCCC)COC(=O)CCCCCCCN(CCCCCC)C(=O)CCCCN(C)CCCCC(=O)N(CCCCCC)CCCCCCCC(=O)OCC(CCCCCC)CCCCCCCC (stereo not drawn) [Compound I-18, Bis(2-Hexyldecyl) 8,8′-((5,5′-(Methylazanediyl)Bis(Pentanoyl))Bis(Hexylazanediyl))Dioctanoate] | 8.9 ± 4.9 | 32.4 ± 4.6 |
| CCCCCCCCC(CCCCCC)COC(=O)CCCCCN(CCCCCC)C(=O)CCCCN(C)CCCCC(=O)N(CCCCCC)CCCCCC(=O)OCC(CCCCCC)CCCCCCCC (stereo not drawn) [Compound I-19, Bis(2-Hexyldecyl) 6,6′-((5,5′-(Methylazanediyl)Bis(Pentanoyl))Bis(Hexylazanediyl))Dihexanoate] | 12.3 ± 5.2 |  |
| CCCCCCCCC(CCCCCC)COC(=O)CCCCCCCCCN(CCCCCC)C(=O)CCCCCN(C)CCCCCC(=O)N(CCCCCC)CCCCCCCCCC(=O)OCC(CCCCCC)CCCCCCCC (stereo not drawn) [Compound I-22, Bis(2-Hexyldecyl) 10,10′-((6,6′-(Methylazanediyl)Bis(Hexanoyl))Bis(Hexylazanediyl))Bis(Decanoate)] | 11.9 ± 5.9 |  |
| CCCCCCCCC(CCCCCC)COC(=O)CCCCCN(CCCCCC)C(=O)CCCCCCN(C)CCCCCCC(=O)N(CCCCCC)CCCCCC(=O)OCC(CCCCCC)CCCCCCCC (stereo not drawn) [Compound I-24, Bis(2-Hexyldecyl) 6,6′-((7,7′-(Methylazanediyl)Bis(Heptanoyl))Bis(Hexylazanediyl))Dihexanoate] | 31.9 ± 6.4 |  |
| CCCCCCCCC(CCCCCC)COC(=O)CCCCCN(CCCCCC)C(=O)CCCCCCCN(C)CCCCCCCC(=O)N(CCCCCC)CCCCCC(=O)OCC(CCCCCC)CCCCCCCC (stereo not drawn) [Compound I-25, Bis(2-Hexyldecyl) 6,6′-((8,8′-(Methylazanediyl)Bis(Octanoyl))Bis(Hexylazanediyl))Dihexanoate] | 55.3 ± 24.8 | 192.4 ± 106.8 |
| CCCCCCCCC(CCCCCC)COC(=O)CCCCCN(CCCCCC)C(=O)CCCCCN(C)CCCCCC(=O)N(CCCCCC)CCCCCC(=O)OCC(CCCCCC)CCCCCCCC (stereo not drawn) [Compound I-27, Bis(2-Hexyldecyl) 6,6′-((6,6′-(Methylazanediyl)Bis(Hexanoyl))Bis(Hexylazanediyl))Dihexanoate] | 15.6 ± 4.7 |  |
| CCCCCCCCC(CCCCCC)COC(=O)CCCCCN(C(=O)CCCCCCCN(C)CCCCCCCC(=O)N(CCCCCC(=O)OCC(CCCCCC)CCCCCCCC)C(C)C)C(C)C (stereo not drawn) [Compound I-28, Bis(2-Hexyldecyl) 6,6′-((8,8′-(Methylazanediyl)Bis(Octanoyl))Bis(Isopropylazanediyl))Dihexanoate] | 13.2 ± 4.3 |  |
| CCCCCCCCC(CCCCCC)COC(=O)CCN(CCCCCC)C(=O)CCCCCCCN(C)CCCCCCCC(=O)N(CCCCCC)CCC(=O)OCC(CCCCCC)CCCCCCCC (stereo not drawn) [Compound I-32, Bis(2-Hexyldecyl) 3,3′-((8,8′-(Methylazanediyl)Bis(Octanoyl))Bis(Hexylazanediyl))Dipropionate] | 70.8 ± 12.3 |  |
| CCCCCCC(CCCC)COC(=O)CCCCCN(CCCCCC)C(=O)CCCCCCCN(C)CCCCCCCC(=O)N(CCCCCC)CCCCCC(=O)OCC(CCCC)CCCCCC (stereo not drawn) [Compound I-33, Bis(2-Butyloctyl) 6,6′-((8,8′-(Methylazanediyl)Bis(Octanoyl))Bis(Hexylazanediyl))Dihexanoate] | 75.8 ± 36.0 |  |
| CCCCCCCCC(CCCCCC)C(=O)OCCCCCCN(CCCCCC)C(=O)CCCCCCCN(CCCCCCCC(=O)N(CCCCCC)CCCCCCOC(=O)C(CCCCCC)CCCCCCCC)CCN(C)C (stereo not drawn) [Compound I-34, ((8,8′-((2-(Dimethylamino)Ethyl)Azanediyl)Bis(Octanoyl))Bis(Hexylazanediyl))Bis(Hexane-6,1-Diyl) Bis(2-Hexyldecanoate)] | 5.0 ± 0.8 |  |
| CCCCCCCCC(CCCCCC)COC(=O)CCCCCN(CCCCCC)C(=O)CCCCCN(CCCCCC(=O)N(CCCCCC)CCCCCC(=O)OCC(CCCCCC)CCCCCCCC)CCCOC (stereo not drawn) [Compound I-37, Bis(2-Hexyldecyl) 6,6′-((6,6′-((3-Methoxypropyl)Azanediyl)Bis(Hexanoyl))Bis(Hexylazanediyl))Dihexanoate] | 63.0 ± 22.9 |  |
